Reference: BindingDB's records for doi:10.1021/acs.jmedchem.8b01719 (Glaxosmithkline, 2019)

Columns and labels:
[1] = Inhibition of HCV genotype 1a wild-type NS5B RNA dependent RNA polymerase transfected in human HuH7 Lunet replicon cells assessed as reduction in viral replication after 3 days by steady-glo luciferase reporter gene assay
[2] = Inhibition of HCV genotype 1a NS5B RNA dependent RNA polymerase C316Y mutant transfected in human HuH7 Lunet replicon cells assessed as reduction in viral replication after 3 days by steady-glo luciferase reporter gene assay
[3] = Inhibition of HCV genotype 1b NS5B RNA dependent RNA polymerase C316N mutant infected in human HuH7 Lunet replicon cells assessed as reduction in viral replication after 48 hrs by steady-glo luciferase reporter gene assay
[4] = Inhibition of HCV genotype 1b wild-type NS5B RNA dependent RNA polymerase infected in human HuH7 Lunet replicon cells assessed as reduction in viral replication after 48 hrs by steady-glo luciferase reporter gene assay

SMILES | EC50 [1] [nM] | EC50 [2] [nM] | EC50 [3] [nM] | EC50 [4] [nM]
CNC(=O)c1c(-c2ccc(F)cc2)oc2cc(N3C(=O)OC[C@@H]3c3cccc(F)c3)c(C3CC3)cc12 | 290 | > 5000 | > 5000 | 1600
CNC(=O)c1c(-c2ccc(F)cc2)oc2cc(N(Cc3ccc(B(O)O)cc3C(F)(F)F)S(C)(=O)=O)c(C3CC3)cc12 | – | – | 19 | 5
CNC(=O)c1c(-c2ccc(F)cc2)oc2cc(N3C(=O)OCC3c3ccc(B(O)O)cc3)c(C3CC3)cc12 (centres undefined) | 8.3 | 2000 | 200 | 16
CNC(=O)c1c(-c2ccc(F)cc2)oc2cc(-n3nccc3-c3ccc(B(O)O)c(F)c3)c(C3CC3)cc12 | 2.3 | 20 | 7.9 | 4
CNC(=O)c1c(-c2ccc(F)cc2)oc2cc(N3C(=O)NCC3c3ccc(B(O)O)cc3)c(C3CC3)cc12 (centres undefined) | – | – | 3200 | 250
CNC(=O)c1c(-c2ccc(F)cc2)oc2cc(N3C(=O)OC[C@H]3c3ccc(B(O)O)c(F)c3)c(C3CC3)cc12 | 140 | > 5000 | 1600 | 200
CNC(=O)c1c(-c2ccc(F)cc2)oc2cc(N(c3ccc(B(O)O)c(F)c3)S(C)(=O)=O)c(C3CC3)cc12 | 1 | 39 | 3.2 | 2
CNC(=O)c1c(-c2ccc(F)cc2)oc2cc(N(c3ccc(B(O)O)cc3)S(C)(=O)=O)c(C3CC3)cc12 | 0.9 | 290 | 6.3 | 2.5
CNC(=O)c1c(-c2ccc(F)cc2)oc2cc(N(C3CCc4cc(B(O)O)ccc43)S(C)(=O)=O)c(C3CC3)cc12 (centres undefined) | 9.2 | 4400 | 500 | 50
CNC(=O)c1c(-c2ccc(F)cc2)oc2cc(-n3ncnc3-c3ccc(B(O)O)c(F)c3)c(C3CC3)cc12 | 1.1 | 46 | 6.3 | 2
CNC(=O)c1c(-c2ccc(F)cc2)oc2cc(N(C3CCCc4cc(B(O)O)ccc43)S(C)(=O)=O)c(C3CC3)cc12 (centres undefined) | 28 | > 5000 | 250 | 100
CNC(=O)c1c(-c2ccc(F)cc2)oc2cc(-n3ccnc3-c3ccc(B(O)O)c(F)c3)c(C3CC3)cc12 | 18 | 2000 | 400 | 50
CNC(=O)c1c(-c2ccc(F)cc2)oc2cc(N(c3cccc(B(O)O)c3)S(C)(=O)=O)c(C3CC3)cc12 | 2.2 | 1900 | 63 | 6.3
CNC(=O)c1c(-c2ccc(F)cc2)oc2cc(-n3nnnc3-c3ccc(B(O)O)c(Cl)c3)c(C3CC3)cc12 | 3.8 | 660 | 40 | 5
CNC(=O)c1c(-c2ccc(F)cc2)oc2cc(-c3ncnn3-c3ccc(B(O)O)c(F)c3)c(C3CC3)cc12 | 1.2 | 24 | 4 | 2
CNC(=O)c1c(-c2ccc(F)cc2)oc2cc(N3C(=O)CCC3c3ccc(B(O)O)cc3)c(C3CC3)cc12 (centres undefined) | – | – | 790 | 63
CNC(=O)c1c(-c2ccc(F)cc2)oc2cc(N(c3cc(Cl)c4c(c3)COB4O)S(C)(=O)=O)c(C3CC3)cc12 | 1.3 | 32 | 2.5 | 2.5
CNC(=O)c1c(-c2ccc(F)cc2)oc2cc(-c3ncoc3-c3ccc(B(O)O)c(F)c3)c(C3CC3)cc12 | 3.4 | 30 | 6.3 | 4
CNC(=O)c1c(-c2ccc(F)cc2)oc2cc(N(C3CCc4c(B(O)O)cccc43)S(C)(=O)=O)c(C3CC3)cc12 (centres undefined) | 11 | 1200 | 320 | 40
CNC(=O)c1c(-c2ccc(F)cc2)oc2cc(N(C(C)c3ccc4c(c3)COB4O)S(C)(=O)=O)c(C3CC3)cc12 (centres undefined) | – | – | 830 | 25
CNC(=O)c1c(-c2ccc(F)cc2)oc2cc(N3C(=O)OCCC3c3ccc(B(O)O)cc3)c(C3CC3)cc12 (centres undefined) | 56 | 310 | 400 | 50
CNC(=O)c1c(-c2ccc(F)cc2)oc2cc(N3C(=O)OCC3c3cccc(B(O)O)c3)c(C3CC3)cc12 (centres undefined) | – | – | 1600 | 100
CNC(=O)c1c(-c2ccc(F)cc2)oc2cc(N3C(=O)OC[C@@H]3c3ccc(B(O)O)c(F)c3)c(C3CC3)cc12 | 2.6 | 24 | 5 | 2
CNC(=O)c1c(-c2ccc(F)cc2)oc2cc(N(c3ccc(B(O)O)c(C(F)(F)F)c3)S(C)(=O)=O)c(C3CC3)cc12 | 1.1 | 17 | 7.9 | 4
CNC(=O)c1c(-c2ccc(F)cc2)oc2cc(-n3nc(C)nc3-c3ccc(B(O)O)c(F)c3)c(C3CC3)cc12 | 6 | 630 | 400 | 13
CNC(=O)c1c(-c2ccc(F)cc2)oc2cc(N(c3ccc(B(O)O)c(Cl)c3)S(C)(=O)=O)c(C3CC3)cc12 | 1.2 | 11 | 4 | 2.5
